Measurements taken from paper PMC4744088 (Journal of biomolecular screening, 2015).

Assay: "true hits" assay alpha screen signal
Settings: indicates false positive

SMILES: Nc1c(S(=O)(=O)O)cc(Nc2ccc(Nc3nc(Cl)nc(Nc4cccc(S(=O)(=O)O)c4)n3)c(S(=O)(=O)O)c2)c2c1C(=O)c1ccccc1C2=O [Reactive blue 2]
- inhibition of the "true hits" assay alpha screen signal: greater than 50%
